Laboratory results: ChEMBL document CHEMBL5370593, “Discovery and In Vitro Characterization of SPL028: Deuterated N,N-Dimethyltryptamine” (ACS Med Chem Lett, 2023)
Activity calls are given as the source filed them. No cut-off for these calls is given here.

Columns and labels:
[1] = Plasma protein binding in human assessed as unbound fraction by rapid equilibrium dialysis analysis; type: ADME, cell-free
[2] = Distribution coefficient, mean logD of compound at pH 7.4 in octanol and aqueous solution incubated for 95 mins under shaking condition by LC-MS/MS analysis; type: physicochemical
[3] = target: T1, 5-hydroxytryptamine receptor 1B (Homo sapiens, UniProt P28222); experiment: Displacement of [3H] GR125743 from human recombinant 5-HT1B receptor expressed in […] cells incubated for 90 mins by spectrophotometric analysis; type: cell-based
[4] = target: T2, 5-hydroxytryptamine receptor 2A (Homo sapiens, UniProt P28223); experiment: Displacement of [3H] ketanserin from human recombinant 5-HT2A receptor expressed in CHO-K1 cells incubated for 60 mins by spectrophotometric analysis
[5] = target: T3, Alpha-1B adrenergic receptor (Homo sapiens, UniProt P35368); experiment: Displacement of [3H] prazosin from human recombinant adrenergic alpha-1b receptor expressed in […] cells incubated for 60 mins by spectrophotometric analysis; type: cell-based
T3 sequence (P35368 whole entry): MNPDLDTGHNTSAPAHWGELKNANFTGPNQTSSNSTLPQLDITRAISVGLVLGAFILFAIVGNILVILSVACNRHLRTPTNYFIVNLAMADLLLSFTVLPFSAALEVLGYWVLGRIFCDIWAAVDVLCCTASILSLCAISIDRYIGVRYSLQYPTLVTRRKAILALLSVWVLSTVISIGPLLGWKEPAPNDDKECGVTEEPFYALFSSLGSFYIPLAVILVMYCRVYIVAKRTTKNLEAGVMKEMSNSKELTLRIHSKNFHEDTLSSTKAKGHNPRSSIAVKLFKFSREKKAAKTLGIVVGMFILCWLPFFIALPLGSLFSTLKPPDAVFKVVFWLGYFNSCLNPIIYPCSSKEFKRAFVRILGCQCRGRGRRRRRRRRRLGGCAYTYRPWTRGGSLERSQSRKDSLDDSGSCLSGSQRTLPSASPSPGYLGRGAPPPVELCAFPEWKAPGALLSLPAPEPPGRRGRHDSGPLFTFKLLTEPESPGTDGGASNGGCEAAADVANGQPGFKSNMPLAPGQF

[6] = target: T4, Neuronal acetylcholine receptor; alpha3/beta4 (Homo sapiens, UniProt P30926+P32297); experiment: Displacement of [125I]-epibatidine from human recombinant nAChR alpha3beta4 receptor expressed in CHO-K1 cells incubated for 60 mins by spectrophotometric analysis; type: cell-based
[7] = target: T2, 5-hydroxytryptamine receptor 2A; experiment: Displacement of [3H] ketanserin from human recombinant 5-HT2A receptor expressed in CHO-K1 cells assessed as inhibition constant incubated for 60 mins by spectrophotometric analysis
[8] = target: T5, 5-hydroxytryptamine receptor 7 (Homo sapiens, UniProt P34969); experiment: Displacement of [3H] LSD from human recombinant 5-HT7 receptor expressed in CHO-K1 cells assessed as inhibition constant incubated for 120 mins by spectrophotometric analysis; type: cell-based
[9] = target: T3, Alpha-1B adrenergic receptor; experiment: Displacement of [3H] prazosin from human recombinant adrenergic alpha-1b receptor expressed in […] cells assessed as inhibition constant incubated for 60 mins by spectrophotometric analysis; type: cell-based
[10] = target: T4, Neuronal acetylcholine receptor; alpha3/beta4; experiment: Displacement of [125I]-epibatidine from human recombinant nAChR alpha3beta4 receptor expressed in CHO-K1 cells assessed as inhibition constant incubated for 60 mins by spectrophotometric analysis; type: cell-based
[11] = target: T5, 5-hydroxytryptamine receptor 7; experiment: Displacement of [3H] LSD from human recombinant 5-HT7 receptor expressed in CHO-K1 cells at 10 uM incubated for 120 mins by spectrophotometric analysis relative to control; type: cell-based
[12] = target: 5-hydroxytryptamine receptor 2B (Homo sapiens) (UniProt P41595); experiment: Displacement of [3H] LSD from human recombinant 5-HT2B receptor expressed in CHO-K1 cells at 10 uM incubated for 60 mins by spectrophotometric analysis relative to control; type: cell-based
[13] = target: Alpha-2C adrenergic receptor (Homo sapiens) (UniProt P18825); experiment: Displacement of [3H]-rauwolscine from human recombinant adrenergic alpha-2c receptor expressed in CHO-K1 cells at 10 uM incubated for 60 mins by […] relative to control; type: cell-based
[14] = target: Alpha-1D adrenergic receptor (Homo sapiens) (UniProt P25100); experiment: Displacement of [3H] prazosin from human recombinant adrenergic alpha-1d receptor expressed in HEK293 cells at 10 uM incubated for 60 mins by spectrophotometric analysis relative to control; type: cell-based
[15] = target: Histamine H1 receptor (Homo sapiens) (UniProt P35367); experiment: Displacement of [3H] pyrilamine from human recombinant histamine H1 receptor expressed in CHO-K1 cells at 10 uM incubated for 180 mins by spectrophotometric analysis relative to control; type: cell-based
[16] = target: Alpha-1B adrenergic receptor (Homo sapiens) (UniProt P35368); experiment: Displacement of [3H] prazosin from human recombinant adrenergic alpha-1b receptor expressed in […] cells at 10 uM incubated for 60 mins by spectrophotometric analysis relative to control; type: cell-based
[17] = target: 5-hydroxytryptamine receptor 6 (Homo sapiens, UniProt P50406); experiment: Displacement of [3H] LSD from human recombinant 5-HT6 receptor expressed in human HeLa cells at 10 uM incubated for 120 mins by spectrophotometric analysis relative to control; type: cell-based
[18] = target: Alpha-1A adrenergic receptor (Homo sapiens) (UniProt P35348); experiment: Displacement of [3H] prazosin from human recombinant adrenergic alpha-1a receptor expressed in […] cells at 10 uM incubated for 60 mins by spectrophotometric analysis relative to control; type: cell-based
[19] = target: Alpha-2B adrenergic receptor (Homo sapiens) (UniProt P18089); experiment: Displacement of [3H]-rauwolscine from human recombinant adrenergic alpha-2b receptor expressed in […] cells at 10 uM incubated for 60 mins by […] relative to control; type: cell-based
[20] = target: T1, 5-hydroxytryptamine receptor 1B; experiment: Displacement of [3H] GR125743 from human recombinant 5-HT1B receptor expressed in […] cells at 10 uM incubated for 90 mins by spectrophotometric analysis relative to control; type: cell-based
[21] = target: Alpha-2A adrenergic receptor (Homo sapiens) (UniProt P08913); experiment: Displacement of [3H]-rauwolscine from human recombinant adrenergic alpha-2A receptor expressed in CHO-K1 cells at 10 uM incubated for 60 mins by spectrophotometric analysis relative to control; type: cell-based
[22] = target: 5-hydroxytryptamine receptor 5A (Homo sapiens, UniProt P47898); experiment: Displacement of [3H] LSD from human recombinant 5-HT5A receptor expressed in CHO-K1 cells at 10 uM incubated for 60 mins by spectrophotometric analysis relative to control; type: cell-based
[23] = target: Sigma non-opioid intracellular receptor 1 (Homo sapiens) (UniProt Q99720); experiment: Displacement of [3H] pentazocine from human sigma 1 receptor expressed in human Jurkat cells at 10 uM incubated for 120 mins by spectrophotometric analysis relative to control; type: cell-based; conditions: tested as the 2H-labelled form
[24] = target: Sigma non-opioid intracellular receptor 1 (Homo sapiens) (UniProt Q99720); experiment: Displacement of [3H] pentazocine from human sigma 1 receptor expressed in human Jurkat cells at <=10 uM incubated for 120 mins by spectrophotometric analysis; type: cell-based

T2 sequence (P28223 whole entry): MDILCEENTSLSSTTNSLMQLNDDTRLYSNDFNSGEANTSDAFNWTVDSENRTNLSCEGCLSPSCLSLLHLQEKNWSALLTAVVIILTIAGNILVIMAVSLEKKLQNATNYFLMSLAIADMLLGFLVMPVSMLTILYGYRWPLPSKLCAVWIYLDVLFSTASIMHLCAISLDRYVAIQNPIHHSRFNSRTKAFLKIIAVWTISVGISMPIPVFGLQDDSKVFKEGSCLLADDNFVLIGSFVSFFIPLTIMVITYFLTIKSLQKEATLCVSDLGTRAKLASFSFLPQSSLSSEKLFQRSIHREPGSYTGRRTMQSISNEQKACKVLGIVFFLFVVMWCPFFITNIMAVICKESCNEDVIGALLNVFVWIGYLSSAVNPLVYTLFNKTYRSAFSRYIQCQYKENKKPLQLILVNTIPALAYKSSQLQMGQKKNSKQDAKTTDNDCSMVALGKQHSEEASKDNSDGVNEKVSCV
Chain of Sigma non-opioid intracellular receptor 1 (Homo sapiens) (Q99720 whole entry): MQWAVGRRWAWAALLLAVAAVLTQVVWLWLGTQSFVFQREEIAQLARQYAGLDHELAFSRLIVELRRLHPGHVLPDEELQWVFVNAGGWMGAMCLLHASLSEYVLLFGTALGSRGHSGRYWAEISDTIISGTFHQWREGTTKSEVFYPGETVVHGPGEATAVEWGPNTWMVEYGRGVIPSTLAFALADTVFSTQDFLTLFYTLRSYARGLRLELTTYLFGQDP
T1 sequence (P28222 whole entry): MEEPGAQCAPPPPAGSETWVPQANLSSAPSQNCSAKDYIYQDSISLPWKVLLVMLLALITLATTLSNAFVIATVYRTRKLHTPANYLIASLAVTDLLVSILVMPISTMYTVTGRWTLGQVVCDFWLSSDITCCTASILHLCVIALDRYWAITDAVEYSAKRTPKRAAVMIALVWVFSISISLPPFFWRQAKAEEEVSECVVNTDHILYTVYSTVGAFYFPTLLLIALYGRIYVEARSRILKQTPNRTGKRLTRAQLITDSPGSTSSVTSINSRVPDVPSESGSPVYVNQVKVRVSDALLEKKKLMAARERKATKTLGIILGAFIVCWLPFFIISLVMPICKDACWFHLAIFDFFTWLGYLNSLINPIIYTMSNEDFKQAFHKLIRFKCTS
T5 sequence (P34969 whole entry): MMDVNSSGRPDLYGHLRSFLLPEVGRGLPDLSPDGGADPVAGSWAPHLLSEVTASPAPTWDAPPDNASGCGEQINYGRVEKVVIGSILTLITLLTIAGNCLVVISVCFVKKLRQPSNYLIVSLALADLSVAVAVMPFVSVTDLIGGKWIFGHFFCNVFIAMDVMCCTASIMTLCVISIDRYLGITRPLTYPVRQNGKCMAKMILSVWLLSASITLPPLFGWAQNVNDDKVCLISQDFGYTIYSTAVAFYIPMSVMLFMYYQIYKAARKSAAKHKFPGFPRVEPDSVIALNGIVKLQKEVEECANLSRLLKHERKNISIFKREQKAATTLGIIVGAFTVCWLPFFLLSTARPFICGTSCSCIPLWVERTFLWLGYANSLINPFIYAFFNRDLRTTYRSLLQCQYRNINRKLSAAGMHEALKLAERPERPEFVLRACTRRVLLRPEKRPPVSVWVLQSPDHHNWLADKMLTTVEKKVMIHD
T4 sequence (P30926 whole entry): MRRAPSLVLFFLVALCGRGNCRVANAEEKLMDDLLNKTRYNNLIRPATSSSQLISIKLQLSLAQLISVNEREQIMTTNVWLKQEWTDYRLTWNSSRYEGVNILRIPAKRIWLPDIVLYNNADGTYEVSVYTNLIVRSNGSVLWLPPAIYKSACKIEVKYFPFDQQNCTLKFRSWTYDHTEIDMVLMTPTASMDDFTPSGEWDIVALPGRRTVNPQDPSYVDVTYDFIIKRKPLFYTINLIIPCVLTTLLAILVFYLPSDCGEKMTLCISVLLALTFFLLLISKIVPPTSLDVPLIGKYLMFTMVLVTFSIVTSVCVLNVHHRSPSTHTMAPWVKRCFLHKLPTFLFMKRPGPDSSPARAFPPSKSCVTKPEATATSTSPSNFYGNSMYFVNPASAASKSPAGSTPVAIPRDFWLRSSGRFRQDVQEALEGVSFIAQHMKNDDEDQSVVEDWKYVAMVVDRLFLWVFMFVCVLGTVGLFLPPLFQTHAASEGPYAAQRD
T4 sequence (P32297 whole entry): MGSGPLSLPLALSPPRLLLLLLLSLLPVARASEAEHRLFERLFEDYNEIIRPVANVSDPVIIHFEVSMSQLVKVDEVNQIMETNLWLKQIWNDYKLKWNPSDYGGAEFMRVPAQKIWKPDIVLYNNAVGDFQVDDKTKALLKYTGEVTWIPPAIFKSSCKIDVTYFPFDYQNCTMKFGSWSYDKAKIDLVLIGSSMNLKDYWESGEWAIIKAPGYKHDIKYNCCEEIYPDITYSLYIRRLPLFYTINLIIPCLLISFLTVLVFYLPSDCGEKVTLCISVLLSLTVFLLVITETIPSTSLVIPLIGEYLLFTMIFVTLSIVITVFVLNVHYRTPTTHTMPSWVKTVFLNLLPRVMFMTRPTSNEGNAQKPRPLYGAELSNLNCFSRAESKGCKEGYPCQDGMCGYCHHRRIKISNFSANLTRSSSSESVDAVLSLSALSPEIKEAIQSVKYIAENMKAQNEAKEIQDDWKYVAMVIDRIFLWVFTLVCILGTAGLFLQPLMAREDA
Chain of 5-hydroxytryptamine receptor 2B (Homo sapiens) (P41595 whole entry): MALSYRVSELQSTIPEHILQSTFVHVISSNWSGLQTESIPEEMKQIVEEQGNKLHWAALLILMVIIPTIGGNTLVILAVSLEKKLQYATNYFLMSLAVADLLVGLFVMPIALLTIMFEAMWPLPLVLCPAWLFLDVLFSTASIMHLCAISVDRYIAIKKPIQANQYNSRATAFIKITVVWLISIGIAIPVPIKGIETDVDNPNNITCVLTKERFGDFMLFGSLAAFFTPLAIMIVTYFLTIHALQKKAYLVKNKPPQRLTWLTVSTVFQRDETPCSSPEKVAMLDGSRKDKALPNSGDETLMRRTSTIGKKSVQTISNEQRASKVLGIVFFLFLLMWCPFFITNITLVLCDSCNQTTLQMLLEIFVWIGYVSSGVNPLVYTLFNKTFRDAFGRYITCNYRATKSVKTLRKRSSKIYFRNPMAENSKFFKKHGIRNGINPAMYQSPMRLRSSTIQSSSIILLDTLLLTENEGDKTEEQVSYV
Chain of Histamine H1 receptor (Homo sapiens) (P35367 whole entry): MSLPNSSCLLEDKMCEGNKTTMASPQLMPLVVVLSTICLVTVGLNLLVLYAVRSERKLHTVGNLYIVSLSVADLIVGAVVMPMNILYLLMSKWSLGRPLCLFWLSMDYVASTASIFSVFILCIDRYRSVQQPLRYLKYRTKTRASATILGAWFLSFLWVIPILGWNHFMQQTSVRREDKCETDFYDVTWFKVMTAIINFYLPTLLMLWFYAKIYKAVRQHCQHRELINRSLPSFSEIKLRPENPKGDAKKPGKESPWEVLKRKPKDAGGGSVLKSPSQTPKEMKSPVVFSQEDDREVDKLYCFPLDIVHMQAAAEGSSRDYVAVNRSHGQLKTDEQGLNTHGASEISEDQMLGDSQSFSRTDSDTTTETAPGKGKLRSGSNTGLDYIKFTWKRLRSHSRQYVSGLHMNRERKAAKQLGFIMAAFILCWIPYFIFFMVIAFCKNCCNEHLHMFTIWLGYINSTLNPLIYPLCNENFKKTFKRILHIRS
Chain of Alpha-1D adrenergic receptor (Homo sapiens) (P25100 whole entry): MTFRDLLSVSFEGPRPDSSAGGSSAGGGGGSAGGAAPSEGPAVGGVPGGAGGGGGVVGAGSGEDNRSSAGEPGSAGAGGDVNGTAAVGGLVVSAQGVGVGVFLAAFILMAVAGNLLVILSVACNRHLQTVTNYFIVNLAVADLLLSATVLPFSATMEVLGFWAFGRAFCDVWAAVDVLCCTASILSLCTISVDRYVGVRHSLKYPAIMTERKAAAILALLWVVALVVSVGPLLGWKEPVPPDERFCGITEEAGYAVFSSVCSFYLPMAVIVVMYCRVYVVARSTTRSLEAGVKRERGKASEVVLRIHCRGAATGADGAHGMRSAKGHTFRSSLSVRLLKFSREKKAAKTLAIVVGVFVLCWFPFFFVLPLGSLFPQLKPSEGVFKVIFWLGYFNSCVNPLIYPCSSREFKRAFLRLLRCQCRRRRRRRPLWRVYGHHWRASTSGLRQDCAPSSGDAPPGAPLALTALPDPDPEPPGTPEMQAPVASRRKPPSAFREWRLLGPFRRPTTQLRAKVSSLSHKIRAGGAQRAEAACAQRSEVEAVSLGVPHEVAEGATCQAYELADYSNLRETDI
Chain of Alpha-2B adrenergic receptor (Homo sapiens) (P18089 whole entry): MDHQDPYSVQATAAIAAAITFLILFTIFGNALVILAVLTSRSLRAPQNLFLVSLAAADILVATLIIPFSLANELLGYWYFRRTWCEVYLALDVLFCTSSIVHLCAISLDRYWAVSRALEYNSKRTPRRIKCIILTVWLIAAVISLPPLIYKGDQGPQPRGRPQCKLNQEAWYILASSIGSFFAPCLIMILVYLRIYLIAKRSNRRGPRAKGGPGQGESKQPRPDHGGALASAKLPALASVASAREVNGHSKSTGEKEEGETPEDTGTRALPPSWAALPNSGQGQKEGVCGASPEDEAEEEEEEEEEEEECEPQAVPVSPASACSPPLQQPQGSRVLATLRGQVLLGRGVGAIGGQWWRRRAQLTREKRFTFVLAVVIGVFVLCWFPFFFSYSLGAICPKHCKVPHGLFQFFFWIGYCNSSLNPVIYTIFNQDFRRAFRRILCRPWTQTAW
Chain of 5-hydroxytryptamine receptor 5A (P47898 whole entry): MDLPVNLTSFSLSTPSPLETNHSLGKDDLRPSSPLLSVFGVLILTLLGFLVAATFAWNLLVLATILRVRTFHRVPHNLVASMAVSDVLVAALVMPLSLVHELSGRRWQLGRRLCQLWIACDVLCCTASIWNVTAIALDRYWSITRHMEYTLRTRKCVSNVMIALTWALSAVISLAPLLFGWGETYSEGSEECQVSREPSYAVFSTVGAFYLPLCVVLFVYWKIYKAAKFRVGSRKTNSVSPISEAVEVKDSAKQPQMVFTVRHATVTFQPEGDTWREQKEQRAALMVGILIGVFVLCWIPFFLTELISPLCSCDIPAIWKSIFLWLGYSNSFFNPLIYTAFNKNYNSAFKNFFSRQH

O=C(O)/C=C/C(=O)O.[2H]C([2H])(Cc1c[nH]c2ccccc12)N(C)C
fraction unbound [1]: 0.7 | logD at 1.583 h [2]: 0.11 | IC50 [3]: 1990 nM | IC50 [4]: 220 nM | IC50 [5]: 930 nM | IC50 [6]: 4400 nM | Ki [7]: 60 nM | Ki [8]: 50 nM | Ki [9]: 370 nM | Ki [10]: 3180 nM

CN(C)CCc1c[nH]c2ccccc12.O=C(O)/C=C/C(=O)O
fraction unbound [1]: 0.68 | inhibition [11]: 90.4% | inhibition ([11]; tested as the 2H-labelled form): 95.5% | inhibition [12]: 95.5% | inhibition ([12]; tested as the 2H-labelled form): 96.5% | inhibition [13]: 58.4% | inhibition ([13]; tested as the 2H-labelled form): 57.6% | inhibition [14]: 54.1% | inhibition ([14]; tested as the 2H-labelled form): 63.2% | logD at 1.583 h [2]: 0.15 | inhibition [15]: 88.8% | inhibition ([15]; tested as the 2H-labelled form): 91.4% | inhibition [16]: 85.8% | inhibition ([16]; tested as the 2H-labelled form): 87.2% | inhibition [17]: 86.1% | inhibition ([17]; tested as the 2H-labelled form): 86.2% | inhibition [18]: 85.1% | inhibition ([18]; tested as the 2H-labelled form): 85.1% | inhibition [19]: 81.1% | inhibition ([19]; tested as the 2H-labelled form): 79.8% | inhibition [20]: 73.1% | inhibition ([20]; tested as the 2H-labelled form): 75.5% | inhibition [21]: 67.1% | inhibition ([21]; tested as the 2H-labelled form): 69.1% | inhibition [22]: 72.7% | inhibition ([22]; tested as the 2H-labelled form): 70.2% | IC50 [3]: 2420 nM | IC50 [4]: 150 nM | IC50 [5]: 670 nM | IC50 [6]: 4200 nM | Ki [7]: 40 nM | Ki [8]: 70 nM | Ki [9]: 260 nM | Ki [10]: 3030 nM | inhibition [23]: 45% | inhibition [24]: inactive | inhibition ([24]; tested as the 2H-labelled form): inactive
